The values that follow come from patent publication US9758517B2, “Histone demethylase inhibitors” (Quanticel Pharmaceuticals, Inc., priority 2014, dated 2017).

In general, IC50 refers to the concentration that inhibits the measured activity by half. A high value points to lower potency.

The target in this assay is JMJD2C (Homo sapiens (Human), UniProt Q9H3R0). The experiment in a line: In vitro enzyme inhibition assay, JMJD2C demethylase activity (TR-FRET). In kind it is biochemical. The following applies: 0.3 nM JMJD2C, 300 nM H3K9me3-biotin peptide, 2 μM alpha-ketoglutaric acid, 30 minutes at room temperature. How it is done: This assay determines the ability of a test compound to inhibit JMJD2C demethylase activity. Baculovirus expressed JMJD2C (GenBank Accession #BC143571, AA 2-372) was purchased from BPS Bioscience (Cat#50105).
Chain of JMJD2C (Q9H3R0 2-372): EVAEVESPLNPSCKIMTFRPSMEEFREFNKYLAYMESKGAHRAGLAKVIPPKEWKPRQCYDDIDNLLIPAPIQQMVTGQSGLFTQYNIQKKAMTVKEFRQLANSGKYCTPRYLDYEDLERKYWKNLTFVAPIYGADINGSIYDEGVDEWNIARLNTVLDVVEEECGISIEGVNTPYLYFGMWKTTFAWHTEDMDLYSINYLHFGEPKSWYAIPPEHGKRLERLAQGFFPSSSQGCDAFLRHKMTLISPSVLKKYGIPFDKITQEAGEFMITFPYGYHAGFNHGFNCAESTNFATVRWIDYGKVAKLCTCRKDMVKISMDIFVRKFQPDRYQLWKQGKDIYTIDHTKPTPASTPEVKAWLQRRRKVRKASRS
The ability of test compounds to inhibit the activity of JMJD2C was determined in 384-well plate format under the following reaction conditions: 0.3 nM JMJD2C, 300 nM H3K9me3-biotin labeled peptide (Anaspec cat #64360), 2 μM alpha-ketoglutaric acid in assay buffer of 50 mM HEPES, pH7.3, 0.005% Brij35, 0.5 mM TCEP, 0.2 mg/ml BSA, 50 μM sodium L-ascorbate, and 2 μM ammonium iron(II) sulfate. Reaction product was determined quantitatively by TR-FRET after the addition of detection reagent Phycolink Streptavidin-allophycocyanin (Prozyme) and Europium-anti-di-methylated histone H3 lysine 9 (H3K9me2) antibody (PerkinElmer) in the presence of 5 mM EDTA in LANCE detection buffer (PerkinElmer) at a final concentration of 50 nM and 1 nM, respectively.
The assay reaction was initiated by the following: 2 μL of the mixture of 900 nM H3K9me3-biotin labeled peptide and 6 μM alpha-ketoglutaric acid with 2 μL of 11-point serial diluted inhibitor in 3% DMSO were added to each well of the plate, followed by the addition of 2 μl of 0.9 nM JMJD2C to initiate the reaction. The reaction mixture was incubated at room temperature for 30 minutes, and terminated by the addition of 6 μL of 5 mM EDTA in LANCE detection buffer containing 100 nM Phycolink Streptavidin-allophycocyanin and 2 nM Europium-anti-H3K9me2 antibody. Plates were read by EnVisionMultilabel Reader in TR-FRET mode (excitation at 320 nm, emission at 615 nm and 665 nm) after 1 hour incubation at room temperature. A ratio was calculated (665/615) for each well and fitted to determine inhibition constant (IC50).
In general terms: Time-resolved FRET reads energy transfer from a long-lived donor to a nearby acceptor.
The compound `COc1ccc2c(-c3cc4nccc(C(=O)O)c4[nH]3)n(C)nc2c1` [Example 1, 2-(6-Methoxy-2-methyl-2H-indazol-3-yl)-1H-pyrrolo[3,2-b]pyridine-7-carboxylic acid] returned an IC50 of 100 to 1000 nM. The same measure for `COc1ccc2nn(C)c(-c3cc4nccc(C(=O)O)c4[nH]3)c2c1` [Example 2, 2-(5-Methoxy-2-methyl-2H-indazol-3-yl)-1H-pyrrolo[3,2-b]pyridine-7-carboxylic acid]: 100 to 1000 nM. The same measure for `Cn1nc2cc(Cl)ccc2c1-c1cc2nccc(C(=O)O)c2[nH]1` [Example 3, 2-(6-Chloro-2-methyl-2H-indazol-3-yl)-1H-pyrrolo[3,2-b]pyridine-7-carboxylic acid]: 100 to 1000 nM; for `Cn1nc2ccc(C(F)(F)F)cc2c1-c1cc2nccc(C(=O)O)c2[nH]1` [Example 4, 2-[2-Methyl-5-(trifluoromethyl)-2H-indazol-3-yl]-1H-pyrrolo[3,2-b]pyridine-7-carboxylic acid]: 1000 to 10000 nM; for `Cn1nc2ccc(OC(F)(F)F)cc2c1-c1cc2nccc(C(=O)O)c2[nH]1` [Example 5, 2-[2-Methyl-5-(trifluoromethoxy)-2H-indazol-3-yl]-1H-pyrrolo[3,2-b]pyridine-7-carboxylic acid]: 1000 to 10000 nM.

For the compound `Cn1nc2ccc(C3CC3)cc2c1-c1cc2nccc(C(=O)O)c2[nH]1` [Example 6, 2-(5-Cyclopropyl-2-methyl-2H-indazol-3-yl)-1H-pyrrolo[3,2-b]pyridine-7-carboxylic acid], the IC50 was 100 to 1000 nM.

Turning to `Cn1nc2ccc(Cl)cc2c1-c1cc2nccc(C(=O)O)c2[nH]1` [Example 7, 2-(5-Chloro-2-methyl-2H-indazol-3-yl)-1H-pyrrolo[3,2-b]pyridine-7-carboxylic acid], the IC50 lay within 1000 to 10000 nM. Then `CCn1nc2cc(Cl)ccc2c1-c1cc2nccc(C(=O)O)c2[nH]1` [Example 8, 2-(6-Chloro-2-ethyl-2H-indazol-3-yl)-1H-pyrrolo[3,2-b]pyridine-7-carboxylic acid], with 1000 to 10000 nM; and `O=C(O)c1ccnc2cc(-c3c4ccc(Cl)cc4nn3CC3CC3)[nH]c12` [Example 9, 2-[6-Chloro-2-(cyclopropylmethyl)-2H-indazol-3-yl]-1H-pyrrolo[3,2-b]pyridine-7-carboxylic acid], with 1000 to 10000 nM; and `O=C(O)c1ccnc2cc(-c3c4cc(Cl)ccc4nn3CCN3CCCC3)[nH]c12` [Example 10, 2-{5-Chloro-2-[2-(pyrrolidin-1-yl)ethyl]-2H-indazol-3-yl}-1H-pyrrolo[3,2-b]pyridine-7-carboxylic acid], with 100 to 1000 nM. Then `CN(c1ccccc1)c1ccc2c(-c3cc4nccc(C(=O)O)c4[nH]3)n(C)nc2c1` [Example 11, 2-{2-methyl-6-[methyl(phenyl)amino]-2H-indazol-3-yl}-1H-pyrrolo[3,2-b]pyridine-7-carboxylic acid], with 100 to 1000 nM; and `CN(c1ccccc1)c1cccc2c(-c3cc4nccc(C(=O)O)c4[nH]3)n(C)nc12` [Example 12, 2-{2-methyl-7-[methyl(phenyl)amino]-2H-indazol-3-yl}-1H-pyrrolo[3,2-b]pyridine-7-carboxylic acid], with 1000 to 10000 nM; and `Cn1nc(-c2cc3nccc(C(=O)O)c3[nH]2)c2ccccc21` [Example 13, 2-(1-methyl-1H-indazol-3-yl)-1H-pyrrolo[3,2-b]pyridine-7-carboxylic acid], with 100 to 1000 nM. Then `Cn1nc(-c2cc3nccc(C(=O)O)c3[nH]2)c2cc(F)ccc21` [Example 14, 2-(5-fluoro-1-methyl-1H-indazol-3-yl)-1H-pyrrolo[3,2-b]pyridine-7-carboxylic acid], with 100 to 1000 nM. In turn, `Cn1nc(-c2cc3nccc(C(=O)O)c3[nH]2)c2ccc(Cl)cc21` [Example 15, 2-(6-chloro-1-methyl-1H-indazol-3-yl)-1H-pyrrolo[3,2-b]pyridine-7-carboxylic acid] came in with an IC50 of 100 to 1000 nM.

The compound `Cn1nc(-c2cc3nccc(C(=O)O)c3[nH]2)c2ccc(F)cc21` [Example 16, 2-(6-fluoro-1-methyl-1H-indazol-3-yl)-1H-pyrrolo[3,2-b]pyridine-7-carboxylic acid] registered an IC50 of 100 to 1000 nM.

For the compound `CCn1nc(-c2cc3nccc(C(=O)O)c3[nH]2)c2ccc(Cl)cc21` [Example 17, 2-(6-chloro-1-ethyl-1H-indazol-3-yl)-1H-pyrrolo[3,2-b]pyridine-7-carboxylic acid], the IC50 lay within 1000 to 10000 nM. The same measure for `O=C(O)c1ccnc2cc(-c3nn(CC4CC4)c4cc(Cl)ccc34)[nH]c12` [Example 18, 2-[6-chloro-1-(cyclopropylmethyl)-1H-indazol-3-yl]-1H-pyrrolo[3,2-b]pyridine-7-carboxylic acid]: 1000 to 10000 nM. Then `O=C(O)c1ccnc2cc(-c3nn(CC(F)(F)F)c4cc(Cl)ccc34)[nH]c12` [Example 19, 2-[6-chloro-1-(2,2,2-trifluoroethyl)-1H-indazol-3-yl]-1H-pyrrolo[3,2-b]pyridine-7-carboxylic acid], with 1000 to 10000 nM; and `O=C(O)c1ccnc2cc(-c3nn(CCN4CCCC4)c4ccc(Cl)cc34)[nH]c12` [Example 20, 2-{5-chloro-1-[2-(pyrrolidin-1-yl)ethyl]-1H-indazol-3-yl}-1H-pyrrolo[3,2-b]pyridine-7-carboxylic acid], with 100 to 1000 nM. The same measure for `O=C(O)c1ccnc2cc(-c3nn(CCN4CCOCC4)c4ccc(F)cc34)[nH]c12` [Example 21, 2-{5-fluoro-1-[2-(morpholin-4-yl)ethyl]-1H-indazol-3-yl}-1H-pyrrolo[3,2-b]pyridine-7-carboxylic acid]: 1000 to 10000 nM.
